Earlier results in US20210069110A1, “NON-AQUEOUS COMPOSITION HAVING DRUG CARRIED THEREIN, AND METHOD FOR PRODUCING SAME” (Techno Guard Co. Ltd., priority 2017, published 2021).

details: General Notice of Japanese Pharmacopoeia

Water solubility of drug (Expression in Japanese Pharmacopoeia) | Structure (SMILES)
Practically insoluble | CCCCC[C@H](O)/C=C/[C@H]1[C@H](O)CC(=O)[C@@H]1CCCCCCC(=O)O [Prostaglandin E1]
Practically insoluble | CC(=O)O[C@@]12CO[C@@H]1C[C@H](O)[C@@]1(C)C(=O)[C@H](O)C3=C(C)[C@@H](OC(=O)[C@H](O)[C@@H](NC(=O)OC(C)(C)C)c4ccccc4)C[C@@](O)([C@@H](OC(=O)c4ccccc4)[C@H]21)C3(C)C [Docetaxel]
Practically insoluble | CO[C@H]1C(=O)[C@]2(C)[C@@H](OC)C[C@H]3OC[C@@]3(OC(C)=O)[C@H]2[C@H](OC(=O)c2ccccc2)[C@]2(O)C[C@H](OC(=O)[C@H](O)[C@@H](NC(=O)OC(C)(C)C)c3ccccc3)C(C)=C1C2(C)C [Cabazitaxel]
Practically insoluble | CC(=O)O[C@H]1C(=O)[C@@]2(C)[C@H]([C@H](OC(=O)c3ccccc3)[C@]3(O)C[C@H](OC(=O)[C@H](O)[C@@H](NC(=O)c4ccccc4)c4ccccc4)C(C)=C1C3(C)C)[C@]1(OC(C)=O)CO[C@@H]1C[C@@H]2O [Paclitaxel]
